Experiments:
PTH receptor [1] = target: T1, PTH receptor (Rattus norvegicus, UniProt P25961); format: binding
T1 construct: endogenous in cells; host or cells: UMR 106-H5 rat osteosarcoma cells
T1 sequence (P25961 27-591): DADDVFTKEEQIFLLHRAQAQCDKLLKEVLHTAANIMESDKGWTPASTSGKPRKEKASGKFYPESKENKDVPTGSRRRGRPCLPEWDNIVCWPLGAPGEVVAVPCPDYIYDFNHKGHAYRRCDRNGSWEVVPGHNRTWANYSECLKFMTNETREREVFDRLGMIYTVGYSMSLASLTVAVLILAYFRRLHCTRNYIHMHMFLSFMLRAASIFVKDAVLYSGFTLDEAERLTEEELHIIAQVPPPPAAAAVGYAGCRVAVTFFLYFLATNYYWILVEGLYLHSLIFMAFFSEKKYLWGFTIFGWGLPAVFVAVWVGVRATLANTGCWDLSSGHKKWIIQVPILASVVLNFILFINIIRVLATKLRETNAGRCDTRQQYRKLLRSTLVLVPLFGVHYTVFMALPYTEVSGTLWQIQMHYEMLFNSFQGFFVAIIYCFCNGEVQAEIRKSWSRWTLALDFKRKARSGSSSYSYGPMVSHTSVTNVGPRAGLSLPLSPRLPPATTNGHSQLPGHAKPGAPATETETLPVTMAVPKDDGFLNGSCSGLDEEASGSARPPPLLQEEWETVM
Experimental: (§1) Receptor binding assays were carried out in canine renal plasma membranes and in UMR 106-H5 rat osteosarcoma cells as previously described in detail (Ref. 14,32), using ^125 I-labeled PTH(1-34)amide as the radioligand. Binding potency (IC50) was quantified as the concentration of unlabeled peptide required for half-maximal displacement of the radioligand. […] Adenylate cyclase activity was assessed in canine renal membranes by the conversion of [α-32p ] ATP to [^32 P] cyclic AMP, essentially as described, except for the addition of 100 micromolar GTP (Ref. 33,34). Adenylate cyclase activity in UMR 106-H5 cells was assessed essentially as described (Ref. 35). In brief, cells were incubated with [3H]adenine 1 micro Ci/ml of serum-free MEM for two hours at 37° C. to label the endogenous ATP pool. Cells were then exposed to 0.4 mM IBMX for 10 min, followed by the appropriate peptide for an additional 10 min at ambient temperature. The cells are then scraped in 20% TCA, and [3H]cyclic AMP is isolated by the column procedure of Salomon et al. (Ref. 36). Potency in the adenylate cyclase assays (Ka) is the concentration of peptide producing half-maximal enzyme activation.

PTH receptor [2] = target: T1, PTH receptor; format: cell-based
Experimental: as §1, with “Assays were conducted using […] cells. These assays were performed as described in Cohen et al. (1991), J. Biological Chem., 266(3), 1997 and in the Experimental section, e.g. Example 11. Receptor” for “Receptor”

PTH receptor [3] = target: T2, PTH receptor (Canis lupus familiaris, UniProt Q9TU31); format: biochemical, canine
T2 construct: canine renal plasma membranes; from tissue; host or cells: canine kidney (renal plasma membranes)
T2 sequence (Q9TU31 29-595): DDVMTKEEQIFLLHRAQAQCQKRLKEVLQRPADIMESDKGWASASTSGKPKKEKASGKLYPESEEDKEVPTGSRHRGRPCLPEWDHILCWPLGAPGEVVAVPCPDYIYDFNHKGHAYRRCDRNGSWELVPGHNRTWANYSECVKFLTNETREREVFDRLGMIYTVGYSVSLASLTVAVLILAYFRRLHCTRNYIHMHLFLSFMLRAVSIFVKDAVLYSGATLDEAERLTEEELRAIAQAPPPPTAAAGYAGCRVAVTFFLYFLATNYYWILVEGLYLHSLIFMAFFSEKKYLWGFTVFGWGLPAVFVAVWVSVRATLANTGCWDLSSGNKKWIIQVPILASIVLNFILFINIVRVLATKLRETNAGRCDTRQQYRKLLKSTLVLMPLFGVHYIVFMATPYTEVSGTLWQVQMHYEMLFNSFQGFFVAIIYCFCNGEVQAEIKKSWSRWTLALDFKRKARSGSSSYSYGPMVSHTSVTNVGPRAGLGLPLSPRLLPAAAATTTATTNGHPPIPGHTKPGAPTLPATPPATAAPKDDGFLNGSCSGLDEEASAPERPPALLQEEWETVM
Experimental: as §1

PTH receptor [4] = target: T2, PTH receptor; format: binding, canine
Experimental: as §1

PTH receptor [5] = settings: Table 5A; intact cells, hPTH(1-34) = 100
PTH receptors = settings: Table 5A; intact cells, hPTH(1-34) = 100

CC[C@H](C)[C@H](NC(=O)[C@H](CCC(=O)O)NC(=O)[C@H](CO)NC(=O)[C@@H](NC(=O)[C@@H](N)CO)C(C)C)C(=O)N[C@@H](CCC(N)=O)C(=O)N[C@@H](CC(C)C)C(=O)N[C@@H](CCSC)C(=O)N[C@@H](Cc1c[nH]cn1)C(=O)N[C@@H](CC(N)=O)C(=O)N[C@@H](CC(C)C)C(=O)NCC(=O)N[C@@H](CCCCN)C(=O)N[C@@H](Cc1c[nH]cn1)C(=O)N[C@@H](CC(C)C)C(=O)N[C@@H](CC(N)=O)C(=O)N[C@@H](CO)C(=O)N[C@@H](CCSC)C(=O)N[C@@H](CCC(=O)O)C(=O)N[C@@H](CCCNC(=N)N)C(=O)N[C@H](C(=O)N[C@@H](CCC(=O)O)C(=O)N[C@@H](Cc1c[nH]c2ccccc12)C(=O)N[C@@H](CC(C)C)C(=O)N[C@@H](CCCNC(=N)N)C(=O)N[C@@H](CCCCN)C(=O)N[C@@H](CCCCN)C(=O)N[C@@H](CC(C)C)C(=O)N[C@@H](CCC(N)=O)C(=O)N[C@@H](CC(=O)O)C(=O)N[C@H](C(=O)N[C@@H](Cc1c[nH]cn1)C(=O)N[C@@H](CC(N)=O)C(=O)N[C@@H](Cc1ccccc1)C(=O)O)C(C)C)C(C)C [hPTH (1-34), hPTH(1-34), reference compound]
100%: BONE CELLS Rat(UMR-106) Potency (B) (PTH receptor [1]) | UMR106-H5 CELLS Rat Bone Potency (B) (PTH receptor [1]) | BONE CELLS Rat(UMR-106) Potency (AC) (PTH receptor [2]) | UMR106-H5 CELLS Rat Bone Potency (AC) (PTH receptor [2]) | UMR106-H5 CELLS Rat Bone Activity (AC*) (PTH receptor [2]; Table 1(A), relative to hPTH(1-34) = 100%) | BONE CELLS Rat(UMR-106) Activity (AC) (PTH receptor [2]; Table 5A, intact cells, hPTH(1-34) = 100) | RENAL MEMBRANES Canine Potency (AC) (PTH receptor [3]) | RENAL MEMBRANES Canine Activity (AC*) (PTH receptor [3]; Table 1(A), large doses, relative to hPTH(1-34) = 100%) | RENAL MEMBRANES Canine Activity (AC) (PTH receptor [3]; Table 5B, hPTH(1-34) = 100) | RENAL MEMBRANES Canine Potency (B) (PTH receptor [4]) | KIDNEY CELLS (CK) Potency (AC) (PTH receptor [5]) | KIDNEY CELLS (CK) Potency (B) (PTH receptors)
